According to ChEMBL document CHEMBL1126373, “HIV and reverse transcriptase inhibition by tannins” (Bioorg Med Chem Lett, 1992):
The source made the active and inactive calls. The rule behind the calls is not given here.

Assays:
[1] = tested on: Human immunodeficiency virus 1; assay: Compound was tested for anti-HIV activity in cell culture assay; active anti HIV agent; format: functional, organism-based
[2] = tested on: Human immunodeficiency virus 1; assay: Compound was tested for anti-HIV activity in cell culture assay expressed as IC50 values; format: functional, organism-based
[3] = tested on: Human immunodeficiency virus 1; assay: Inhibition against HIV replication in cell culture at 20 ug/mL; format: functional; details: for inhibition at 20 µg/mL: Human immunodeficiency virus 1
[4] = tested on: Human immunodeficiency virus 1; assay: Anti-HIV activity in cell culture assay expressed as EC50 values.; format: functional, organism-based
[5] = molecular target: Human immunodeficiency virus type 1 reverse transcriptase (Human immunodeficiency virus 1) (UniProt Q72547); assay: Inhibition against HIV- reverse transcriptase in cell culture at 20 ug/mL
[6] = tested on: Human immunodeficiency virus 1; assay: (§1) Therapeutic index was determined; details: read-out: Therapeutic index
[7] = tested on: Human immunodeficiency virus 1; assay: Anti-HIV activity in cell culture assay expressed as IC50 values.; format: functional, organism-based
[8] = as §1; details: Human immunodeficiency virus 1

| EC50 ([4]; Human immunodeficiency virus 1) [µM] | inhibition [5] [%] | IC50 ([7]; Human immunodeficiency virus 1) [µM] | SMILES | Activity [1] | inhibition at 20 µg/mL [3] [%] | selectivity ratio [6] | also measured |
| --- | --- | --- | --- | --- | --- | --- | --- |
| – | – | – | O=C(Oc1c(O)cc(C(=O)O[C@@H]2C[C@@](O)(C(=O)O)C[C@@H](OC(=O)c3cc(O)c(O)c(O)c3)[C@@H]2OC(=O)c2cc(O)c(O)c(O)c2)cc1O)c1cc(O)c(O)c(O)c1 | active anti HIV agent | – | – | – |
| 50 | 14 | – | O=C(OC[C@H]1O[C@@H](OC(=O)c2cc(O)c(O)c(O)c2)[C@H](O)[C@@H](O)[C@@H]1O)c1cc(O)c(O)c(O)c1 | – | 40 | 0.8 | IC50 [2]: 38 µM |
| – | – | – | O=C(O[C@@H]1C[C@](OC(=O)c2cc(O)c(O)c(O)c2)(C(=O)O)C[C@@H](OC(=O)c2cc(O)c(O)c(O)c2)[C@H]1OC(=O)c1cc(O)c(O)c(O)c1)c1cc(O)c(O)c(O)c1 | Active | – | – | – |
| > 25 | 18 | > 25 | Oc1cc(O)c2c(c1)O[C@H](c1ccc(O)c(O)c1)[C@H](O)[C@H]2c1c(O)cc(O)c2c1O[C@H](c1ccc(O)c(O)c1)[C@H](O)[C@H]2c1c(O)cc(O)c2c1O[C@H](c1ccc(O)c(O)c1)[C@H](O)C2 [PROCYANIDIN C1] | – | 68 | > 1 | – |
| – | – | – | O=C(OC[C@H]1O[C@@H](OC(=O)c2cc(O)c(O)c(O)c2)[C@H](OC(=O)c2cc(O)c(O)c(O)c2)[C@@H](OC(=O)c2cc(O)c(O)c(O)c2)[C@@H]1OC(=O)c1cc(O)c(O)c(O)c1)c1cc(O)c(O)c(O)c1 (stereo in doubt; 10) [PENTAGALLOYL GLUCOSE] | – | – | – | IC50 [7]: 19 µM; Inhibition [3]: 60%; EC50 [4]: 15 µM; Therapeutic index [8]: 1.3 |
| – | – | – | O=C1OC[C@H]2O[C@@H](O)[C@H](O)[C@@H](O)[C@@H]2OC(=O)c2cc(O)c(O)c(O)c2-c2c(O)c(O)c3oc(=O)c4c(c(O)c(O)c5oc(=O)c2c3c54)-c2c1cc(O)c(O)c2O | active anti HIV agent | – | – | – |
| 16 | 45 | 15 | O=C1OCC2OC(=O)c3cc(O)c(O)c(O)c3-c3c(O)c(O)c(O)c4c3C(=O)OC(C2OC(=O)c2cc(O)c(O)c(O)c2-c2c1cc(O)c(O)c2O)C1OC(=O)c2c-4c(O)c(O)c(O)c2[C@H]1O (stereo not given in full) | – | 90 | 0.9 | – |
| 100 | 18 | – | O=C(O[C@@H]1O[C@H](CO)[C@@H](O)[C@H](O)[C@H]1O)c1cc(O)c(O)c(O)c1 | – | 0 | 0.8 | IC50 [2]: 80 µM |
| 50 | 16 | 19 | O=C(OC[C@H]1O[C@@H](OC(=O)c2cc(O)c(O)c(O)c2)[C@H](OC(=O)c2cc(O)c(O)c(O)c2)[C@@H](O)[C@@H]1O)c1cc(O)c(O)c(O)c1 | – | 20 | 0.4 | – |
| – | – | – | O=C(Oc1c(O)cc(C(=O)O[C@H]2[C@H](OC(=O)c3cc(O)c(O)c(O)c3)C[C@](O)(C(=O)O)C[C@H]2OC(=O)c2cc(O)c(O)c(O)c2)cc1O)c1cc(O)c(O)c(O)c1 | active anti HIV agent | – | – | – |
| – | – | – | O=C(Oc1c(O)cc(C(=O)O[C@@H]2C[C@](O)(C(=O)O)C[C@@H](OC(=O)c3cc(O)c(O)c(O)c3)[C@H]2OC(=O)c2cc(O)c(O)c(O)c2)cc1O)c1cc(O)c(O)c(O)c1 | active anti HIV agent | – | – | – |
| 15 | 34 | 21 | O=C(O[C@@H]1O[C@H]2COC(=O)c3cc(O)c(O)c(O)c3-c3c(O)c(O)c(O)c(Oc4cc(C(=O)O[C@H]5O[C@H]6COC(=O)c7cc(O)c(O)c(O)c7-c7c(cc(O)c(O)c7O)C(=O)O[C@H]6[C@@H]6OC(=O)c7cc(O)c(O)c(O)c7-c7c(cc(O)c(O)c7O)C(=O)O[C@H]56)cc(O)c4O)c3C(=O)O[C@H]2[C@@H]2OC(=O)c3cc(O)c(O)c(O)c3-c3c(cc(O)c(O)c3O)C(=O)O[C@H]12)c1cc(O)c(O)c(O)c1 | – | 38 | 1.4 | – |
| > 100 | 0 | 80 | O=C(O[C@H]1[C@H](O)C[C@](O)(C(=O)O)C[C@H]1O)c1cc(O)c(O)c(O)c1 | – | 0 | < 0.8 | – |
| 45 | 25 | 40 | O=C(OC[C@H]1OC(O)[C@@](O)(COC(=O)c2cc(O)c(O)c(O)c2)[C@@H]1OC(=O)c1cc(O)c(O)c(O)c1)c1cc(O)c(O)c(O)c1 (stereo not given in full) | – | 30 | 0.9 | – |
| – | – | – | O=C1OC(C2OC(=O)c3cc(O)c(O)c(O)c3-c3c(O)c(O)c4oc(=O)c5c(c(O)c(O)c6oc(=O)c3c4c65)-c3c(cc(O)c(O)c3O)C(=O)OCC2O)C2OC(=O)c3c(c(O)c(O)c(O)c3[C@H]2O)-c2c1cc(O)c(O)c2O (stereo not given in full) | active anti HIV agent | – | – | – |
